PubChem BioAssay AID1745844 (Carcinogenic Potency Database (CPDB), 2022)
Activity calls are given as the source filed them. No rule for the calls is given here.

Tested on: rodent lifetime carcinogenesis bioassay, tumor incidence TD50
Assay: carcinogenic potency in animals, long-term in vivo studies, CPDB compilation (AID 1745844)

For `COc1cc(OC)c2c3c(c(=O)oc2c1)C(=O)CC3`, the carcinogen call (rat, strain Fischer, males, by gavage, site: liver, lesion: one or several types, types not named, dosed 52 weeks, study length 87 weeks) was “negative (inactive)”.

For `O=S(=O)(O)c1ccc2c(N=Nc3ccc(S(=O)(=O)O)c4ccccc34)c(O)c(S(=O)(=O)O)cc2c1`, the TD50 (rat, strain Mongrel, both sexes, in feed, site: any site (literature study), lesion: several types, types named in the paper, dosed 108 weeks, study length 108 weeks) was 632 mg/kg/day, the TD50 (rat, strain Non-inbred, both sexes, in feed, site: any site (literature study), lesion: several types, types named in the paper, dosed 143 weeks, study length 143 weeks) was 3320 mg/kg/day and the TD50 (rat, strain Non-inbred, both sexes, in feed, site: liver, lesion: hepatoma, dosed 143 weeks, study length 143 weeks) was 49500 mg/kg/day. For the same compound, the TD50 (rat, strain Not specified, females, in feed, site: any site (literature study), lesion: several types, types named in the paper, dosed 64 weeks, study length 64 weeks) was 1640 mg/kg/day (inactive), the carcinogen call (rat, strain Not specified, females, in feed, site: liver, lesion: one or several types, types not named, dosed 64 weeks, study length 64 weeks) was “negative (inactive)” and the carcinogen call (rat, strain Not specified, males, in feed, site: any site (literature study), lesion: several types, types named in the paper, dosed 64 weeks, study length 64 weeks) was “negative (inactive)”. The carcinogen call (rat, strain Not specified, males, in feed, site: liver, lesion: one or several types, types not named, dosed 64 weeks, study length 64 weeks) was “negative (inactive)”, the carcinogen call (rat, strain Sprague-Dawley, females, in feed, site: any site (literature study), lesion: one or several types, types not named, dosed 52 weeks, study length 52 weeks) was “negative (inactive)” and the carcinogen call (rat, strain Sprague-Dawley, females, in feed, site: liver, lesion: one or several types, types not named, dosed 52 weeks, study length 52 weeks) was “negative (inactive)”. It also gave a TD50 (rat, strain Wistar, both sexes, in feed, site: abdomen, lesion: malignant lymphoma, dosed 91 weeks, study length 91 weeks) of 6130 mg/kg/day.

Compound `CCCCN(CCCC)N=O` has a TD50 (mouse, strain ICR/Jcl, males, in feed, site: esophagus, lesion: papilloma, dosed 52 weeks, study length 65 weeks) of 11.9 mg/kg/day, a TD50 (mouse, strain ICR/Jcl, males, in feed, site: forestomach, lesion: several types, types named in the paper, dosed 52 weeks, study length 65 weeks) of 0.686 mg/kg/day and a TD50 (mouse, strain ICR/Jcl, males, in feed, site: forestomach, lesion: squamous-cell carcinoma, dosed 52 weeks, study length 65 weeks) of 1.09 mg/kg/day. For the same compound, the TD50 (mouse, strain ICR/Jcl, males, in feed, site: forestomach, lesion: squamous-cell papilloma, dosed 52 weeks, study length 65 weeks) was 7.69 mg/kg/day, the TD50 (mouse, strain ICR/Jcl, males, in feed, site: liver, lesion: adenoma, dosed 52 weeks, study length 65 weeks) was 4.34 mg/kg/day and the TD50 (mouse, strain ICR/Jcl, males, in feed, site: liver, lesion: several types, types named in the paper, dosed 52 weeks, study length 65 weeks) was 2.65 mg/kg/day. It also gave a TD50 (mouse, strain ICR/Jcl, males, in feed, site: lung, lesion: adenoma, dosed 52 weeks, study length 65 weeks) of 8 mg/kg/day, a TD50 (rat, strain Fischer 344, males, by gavage, site: forestomach, lesion: carcinoma, dosed 30 weeks, study length 108 weeks) of 0.914 mg/kg/day and a TD50 (rat, strain Fischer 344, males, by gavage, site: liver, lesion: hepatocellular carcinoma, dosed 30 weeks, study length 108 weeks) of 0.691 mg/kg/day. The TD50 (rat, strain Fischer 344, males, by gavage, site: lung, lesion: carcinoma, dosed 30 weeks, study length 108 weeks) was 1.16 mg/kg/day and the TD50 (rat, strain Fischer 344, males, by gavage, site: urinary bladder, lesion: transitional-cell carcinoma, dosed 30 weeks, study length 108 weeks) was 1.47 mg/kg/day.

For `O`, the TD50 (mouse, strain B6C3F1, females, in drinking water, site: any site (literature study), lesion: several types, types named in the paper, dosed 104 weeks, study length 105 weeks) was 806 mg/kg/day (inactive), the TD50 (mouse, strain B6C3F1, females, in drinking water, site: liver, lesion: hepatocellular adenoma + hepatoblastoma + hepatocellular carcinoma, dosed 104 weeks, study length 105 weeks) was 4410 mg/kg/day and the TD50 (mouse, strain B6C3F1, females, in drinking water, site: lung, lesion: alveolar/bronchiolar adenoma + alveolar/bronchiolar carcinoma, dosed 104 weeks, study length 105 weeks) was 13400 mg/kg/day. The carcinogen call (mouse, strain B6C3F1, females, in feed, site: all sites, lesion: lymphoma and leukemia, combined, dosed 96 weeks, study length 104 weeks) was “negative (inactive)”, the carcinogen call (mouse, strain B6C3F1, females, in feed, site: liver, lesion: hemangioma, dosed 96 weeks, study length 104 weeks) was “negative (inactive)” and the TD50 (mouse, strain B6C3F1, females, in feed, site: liver, lesion: hemangiosarcoma, dosed 96 weeks, study length 104 weeks) was 57500 mg/kg/day (inactive). For the same compound, the carcinogen call (mouse, strain B6C3F1, females, in feed, site: liver, lesion: hepatocellular carcinoma, dosed 96 weeks, study length 104 weeks) was “negative (inactive)”, the TD50 (mouse, strain B6C3F1, females, in feed, site: liver, lesion: hyperplastic nodule, dosed 96 weeks, study length 104 weeks) was 60500 mg/kg/day (inactive) and the TD50 (mouse, strain B6C3F1, females, in feed, site: lung, lesion: adenocarcinoma, dosed 96 weeks, study length 104 weeks) was 260000 mg/kg/day (inactive). The TD50 (mouse, strain B6C3F1, females, in feed, site: lung, lesion: adenoma, dosed 96 weeks, study length 104 weeks) was 100000 mg/kg/day (inactive), the TD50 (mouse, strain B6C3F1, males, in drinking water, site: all sites, lesion: hemangioma, dosed 103 weeks, study length 103 weeks) was 3470 mg/kg/day (inactive) and the TD50 (mouse, strain B6C3F1, males, in feed, site: all sites, lesion: lymphoma and leukemia, combined, dosed 96 weeks, study length 104 weeks) was 10700 mg/kg/day (inactive). For the same compound, the TD50 (mouse, strain B6C3F1, males, in feed, site: liver, lesion: hemangioma, dosed 96 weeks, study length 104 weeks) was 24400 mg/kg/day (inactive), the TD50 (mouse, strain B6C3F1, males, in feed, site: liver, lesion: hemangiosarcoma, dosed 96 weeks, study length 104 weeks) was 46700 mg/kg/day (inactive) and the carcinogen call (mouse, strain B6C3F1, males, in feed, site: liver, lesion: hepatocellular carcinoma, dosed 96 weeks, study length 104 weeks) was “negative (inactive)”. For the same compound, the carcinogen call (mouse, strain B6C3F1, males, in feed, site: liver, lesion: hyperplastic nodule, dosed 96 weeks, study length 104 weeks) was “negative (inactive)”, the carcinogen call (mouse, strain B6C3F1, males, in feed, site: lung, lesion: adenocarcinoma, dosed 96 weeks, study length 104 weeks) was “negative (inactive)” and the TD50 (mouse, strain B6C3F1, males, in feed, site: lung, lesion: adenoma, dosed 96 weeks, study length 104 weeks) was 87600 mg/kg/day (inactive). For the same compound, the carcinogen call (rat, strain Fischer 344, females, in drinking water, site: any site (literature study), lesion: several types, types named in the paper, dosed 105 weeks, study length 105 weeks) was “negative (inactive)” and the carcinogen call (rat, strain Fischer 344, males, in drinking water, site: any site (literature study), lesion: several types, types named in the paper, dosed 104 weeks, study length 104 weeks) was “negative (inactive)”.
